Among the data in PubChem BioAssay AID2693 (Broad Institute, 2010) are MIC values, retold here.

For this assay, the system named is S. cerevisiae SKY197-pL101 growth, alamar blue fluorescence, 9 h. As to the kind of experiment: S. cerevisiae growth inhibition, dose response, counter-screen for polyadenylation inhibitor project, Alamar Blue fluorescence, MIC (AID 2693). A general note: A counterscreen serves to expose hits that act by an unwanted route or on another target.

Each structure is given as a SMILES string. Values after ≈ are worked out from the molar mass of the structure shown. Results filed as inconclusive are left out. Active and inactive are the calls of the source.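 How the source made its calls: active means a dose response whose lowest growth-blocking dose, signal 3 SD under solvent wells, sits below the top dose; inconclusive means compound fluoresces without dose trend, or replicates split around top dose; inactive means no growth loss up to the top dose.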 Bounds are passed on as bounds.

In general, MIC refers to the smallest concentration in the dilution series that meets the test's criterion for growth inhibition.

Take `O=C(Oc1c(-c2ccccc2)c(=O)n2c3c(cccc13)CC2)c1cccc([N+](=O)[O-])c1`: the MIC is > 50 µM (inactive).
Under `O=C(COC(=O)Cc1ccc(S(=O)(=O)N2CCOCC2)s1)NCc1ccc(Cl)cc1` stands > 50 µM (inactive); under `CCOc1cc(/C=C2\N=C(SC(C)C(N)=O)N(c3ccc(OC(F)F)cc3)C2=O)ccc1O` (stereo unspecified), > 50 µM (inactive).
Then `O=C(O)CN1C(=O)/C(=C\c2ccc(N3CCCCC3)o2)SC1=S`, with 37 µM (≈ 13 µg/mL).
With `Cc1ccc(C(=O)c2no[n+]([O-])c2C(=O)c2ccc(C)cc2)cc1`, the MIC was 3.1 µM (≈ 0.999 µg/mL).
`COc1cc(/C=C2\SC(=S)N(NC(=O)c3ccncc3)C2=O)ccc1O`: the MIC is 25 µM (≈ 9.69 µg/mL).
Then `Nc1ncnc2c1ncn2C1OC(CO)CC1O` (stereo unspecified), with > 50 µM (inactive).
For the compound `Cc1ccc2nc(/C(C#N)=C/c3ccc([N+](=O)[O-])o3)[nH]c2c1`, the MIC was 2.3 µM (≈ 0.677 µg/mL).
On to `CC(=O)c1ccc(Sc2ccccc2)c([N+](=O)[O-])c1`, for which the MIC was > 50 µM (inactive).
Turning to `N#C/C(=C/c1ccc([N+](=O)[O-])o1)c1nc2ccccc2[nH]1`, the MIC was 2.3 µM (≈ 0.645 µg/mL).
Under `CCN1/C(=C\C=C\c2sc3ccccc3[n+]2CC)Sc2ccccc21` stands 4.8 µM; under `Cc1ccc(-c2nn3c(C)nnc3s2)cc1NC(=O)CSc1ccc(Cl)cc1`, > 50 µM (inactive).
As to `N#CC1(C#N)C2=C(CCCC2)NC(c2ccccc2)C1(C#N)C#N` (stereo unspecified), the MIC is 50 µM (≈ 15.7 µg/mL).
Under `Cc1ccc(Nc2c(-c3ccc(C)o3)nc3ncccn23)cc1` stands > 50 µM (inactive).
On to `COc1cc(/C=C2/SC(=S)N(Cc3ccccc3)C2=O)cc(OC)c1O`, for which the MIC was > 50 µM (inactive).
Then `COc1cc(/C=C2/CC/C(=C/c3ccc(O)c(OC)c3)C2=O)ccc1O`, with > 50 µM (inactive).
